Source: US7812170B2, “Insecticides” (Syngenta Crop Protection, Inc., priority 2004, dated 2010)

Assays:
Assay type in all cases: in vivo
Spodoptera littoralis = assay: Activity against Spodoptera littoralis (sprayed soya plants); conditions: 72 h, 400 ppm active ingredient, sprayed young soya plants, 1st instar caterpillars, 3 days, read-out: percentage reduction in the population and in the feeding damage (% activity)
Protocol: Activity Against Spodoptera littoralis Young soya plants are sprayed with an aqueous emulsion spray mixture comprising 400 ppm of active ingredient and, after the spray coating has dried on, populated with 10 caterpillars (1st instar) of Spodoptera littoralis and introduced into a plastic container. 3 days later, the percentage reduction in the population and in the feeding damage (% activity) are determined by comparing the number of dead caterpillars and the feeding damage between the treated and untreated plants.

Heliothis virescens = assay: Activity against Heliothis virescens (foliar application); conditions: 144 h, 400 ppm active ingredient, sprayed young soya plants, 1st instar caterpillars, 6 days, read-out: percentage reduction in the population and in the feeding damage (% activity)
Protocol: Activity Against Heliothis virescens (Foliar Application) Young soya plants are sprayed with an aqueous emulsion spray mixture comprising 400 ppm of active ingredient and, after the spray coating has dried on, populated with 10 caterpillars (1st instar) of Heliothis virescens and introduced into a plastic container. 6 days later, the percentage reduction in the population and in the feeding damage (% activity) are determined by comparing the number of dead caterpillars and the feeding damage between the treated and untreated plants.

Diabrotica balteata = assay: Activity against Diabrotica balteata (sprayed maize seedlings); conditions: 144 h, 400 ppm active ingredient, 2nd instar larvae, 6 days, read-out: percentage reduction in the population (% activity)
Protocol: Activity Against Diabrotica balteata Maize seedlings are sprayed with an aqueous emulsion spray mixture comprising 400 ppm of active ingredient and, after the spray coating has dried on, populated with 10 larvae (2nd instar) of Diabrotica balteata and introduced into a plastic container. 6 days later, the percentage reduction in the population (% activity) is determined by comparing the number of dead larvae between the treated and untreated plants.

Plutella xylostella = assay: Activity against Plutella xylostella (sprayed cabbage plants); conditions: 72 h, 400 ppm active ingredient, sprayed young cabbage plants, 3rd instar caterpillars, 3 days, read-out: percentage reduction in the population and in the feeding damage (% activity)
Protocol: Activity Against Plutella xylostella Young cabbage plants are sprayed with an aqueous emulsion spray mixture comprising 400 ppm of active ingredient and, after the spray coating has dried on, populated with 10 caterpillars (3rd instar) of Plutella xylostella and introduced into a plastic container. 3 days later, the percentage reduction in the population and in the feeding damage (% activity) are determined by comparing the number of dead caterpillars and the feeding damage between the treated and untreated plants.

Myzus persicae = assay: Activity against Myzus persicae (foliar application); conditions: 400 ppm active ingredient, spray on infected pea seedlings, 20°, 3 and 6 days, read-out: percentage reduction in the population (% activity)
Protocol: Activity Against Myzus persicae (Foliar Application) Pea seedlings are infected with Myzus persicae, subsequently sprayed with a spray mixture comprising 400 ppm of active ingredient and then incubated at 20°. 3 and 6 days later, the percentage reduction in the population (% activity) is determined by comparing the number of dead aphids between the treated and untreated plants.

Measured: inhibition at 400 ppm

CC(C)NC(=O)c1cc2ccccc2c(Cl)c1NC(=O)c1cc(C(F)(F)F)nn1-c1ncccc1Cl [Compound T1.3]
> 80%: Spodoptera littoralis | Heliothis virescens | Diabrotica balteata | Plutella xylostella

CNC(=O)c1cc2ccccc2c(Br)c1NC(=O)c1cc(C(F)(F)F)nn1-c1ncccc1Cl [Compound T7.1]
> 80%: Spodoptera littoralis | Heliothis virescens | Diabrotica balteata | Myzus persicae | Plutella xylostella

CC(C)NC(=O)c1cc2cc(Cl)ccc2c(Cl)c1NC(=O)c1cc(C(F)(F)F)nn1-c1ncccc1Cl [Compound T20.3]
> 80%: Spodoptera littoralis | Heliothis virescens | Plutella xylostella

CNC(=O)c1cc2ccccc2c(Cl)c1NC(=O)c1cc(C(F)(F)F)nn1-c1ncccc1Cl [Compound T1.1]
> 80%: Spodoptera littoralis | Heliothis virescens | Diabrotica balteata | Myzus persicae | Plutella xylostella

CNC(=O)c1cc2c([N+](=O)[O-])cccc2c(Cl)c1NC(=O)c1cc(C(F)(F)F)nn1-c1ncccc1Cl [Compound T76.1]
> 80%: Spodoptera littoralis | Heliothis virescens | Plutella xylostella

CNC(=O)c1nc2ccccc2c(C)c1NC(=O)c1cc(C(F)(F)F)nn1-c1ncccc1Cl [Compound T75.1]
> 80%: Spodoptera littoralis | Heliothis virescens | Plutella xylostella

CNC(=O)c1cc2cc(Cl)ccc2c(Cl)c1NC(=O)c1cc(C(F)(F)F)nn1-c1ncccc1Cl [Compound T20.1]
> 80%: Spodoptera littoralis | Heliothis virescens | Plutella xylostella

CC(C)NC(=O)c1cc2ccccc2c(Br)c1NC(=O)c1cc(C(F)(F)F)nn1-c1ncccc1Cl [Compound T7.3]
> 80%: Spodoptera littoralis | Heliothis virescens | Diabrotica balteata | Plutella xylostella

CNC(=O)c1cc2cc(C#N)ccc2c(Cl)c1NC(=O)c1cc(C(F)(F)F)nn1-c1ncccc1Cl [Compound T5.1]
> 80%: Spodoptera littoralis | Heliothis virescens | Plutella xylostella

CCNC(=O)c1cc2cc(Br)ccc2c(Br)c1NC(=O)c1cc(C(F)(F)F)nn1-c1ncccc1Cl [Compound T9.2]
> 80%: Spodoptera littoralis | Heliothis virescens | Plutella xylostella
